Data from patent US4404217A, “3-Indolyl alkylene amino propanols and cardiovascular compositions thereof” (C. M. Industries, priority 1979, dated 1983).
Read-outs that look alike come from different tables or passages of the source.

Columns and labels:
[1] = target: T1, β adrenergic receptors (β1) (Canis lupus familiaris, UniProt P79148); test: Antagonism of the effects of isoprenaline, tachycardia (β1), anaesthetized dog, IV; format: in vivo; conditions: for cardioselectivity β1 - β2 / ED50: dog; for cardioselectivity β1 - β2: isoprenaline antagonism, β1 versus β2; for ED50: read-out: ID50 ISOPRENALINE β1; for cardioselective in vivo (selectively inhibit the cardiac receptors): test with isoprenaline
T1 construct: The dog is anaesthetized using sodium pentobarbital; from tissue; host or cells: whole anaesthetized dog (heart)

[2] = target: T2, β adrenergic receptors (β2) (Canis lupus familiaris, UniProt P54833); test: Antagonism of the effects of isoprenaline, hypotension (β2), anaesthetized dog, IV; format: in vivo; conditions: read-out: ID50 ISOPRENALINE β2
T2 construct: The dog is anaesthetized using sodium pentobarbital; from tissue; host or cells: whole anaesthetized dog (vasculature)
Description: (§1) The dog is anaesthetized using sodium pentobarbital, administered by the IV route at a dose of 30 mg/kg. A cannula placed in the saphenous vein allows the intra-venous injections of the products. The animal is submitted to intubation and is allowed to breathe spontaneously.
(§2) The cardiac frequency and the systemic arterial pressure are studied and the variations of these parameters are observed after intra-venous injection of the product to be tested. Each product is tested with increasing doses.
The antagonism of the products with respect to the β stimulant cardio-vascular effects of isoprenaline on the β adrenergic receptors has been sought. […] The last column indicates the cardioselectivity (β1 >β2) or a low cardioselectivity β1 ≥β2, or no cardioselectivity β1 <β2 and β1 =β2.

[3] = test system: α adrenergic receptors; test: Antagonism of the effects of noradrenaline (pressure response), anaesthetized dog, IV; format: in vivo; conditions: 50% inhibition of pressure response to noradrenaline
Description: as §1, §2
The antagonism of the products with respect to the vascular effects provoked by the IV administration of noradrenaline on the α adrenergic receptors has been sought. The results presented in Table III are expressed in ID50 : it is the dose (mg/kg) which provokes the inhibition by 50% of the pressure response due to the IV administration of noradrenaline.

[4] = target: T3, β1 receptor (Canis lupus familiaris, UniProt P79148); test: Displacement of 3H dihydroalprenolol, plasmic membranes of hearts of dogs; format: binding, dog
T3 construct: plasmic membranes of hearts of dogs (β1 receptor); from tissue; host or cells: dog heart plasma membranes
Description: (§3) The binding tests are effected on suspensions of plasmic membranes coming from various organs. The suspensions of membranes are placed in incubation with the tritiated ligand and various concentrations of products to be tested. After incubation, each test is filtered on GFB(Whatman) filter, the filters are dried and introduced into counting flasks. The measurement of the radioactivity is assessed by scintillation in a liquid medium.
(§4) The tests were made on plasmic membranes of hearts of dogs (β1 receptor) and lungs of rats (β2 receptors), in the presence of ^3 H dihydroalprenolol 4×10^-9 M.

[5] = target: T4, β2 receptors (Rattus norvegicus, UniProt P10608); test: Displacement of 3H dihydroalprenolol, plasmic membranes of lungs of rats; format: binding
T4 construct: lungs of rats (β2 receptors); from tissue; host or cells: rat lung plasma membranes
Description: as §3, §4

[6] = target: T5, α2 receptor (Rattus norvegicus, UniProt P22909); test: Displacement of 3H clonidine, plasmic membranes of rat brains; format: binding; conditions: for affinity for the receptor with clonidine (α2): in vitro
T5 construct: plasmic membranes of rat brains; from tissue; host or cells: rat brain plasma membranes
T5 sequence (P22909 1-465): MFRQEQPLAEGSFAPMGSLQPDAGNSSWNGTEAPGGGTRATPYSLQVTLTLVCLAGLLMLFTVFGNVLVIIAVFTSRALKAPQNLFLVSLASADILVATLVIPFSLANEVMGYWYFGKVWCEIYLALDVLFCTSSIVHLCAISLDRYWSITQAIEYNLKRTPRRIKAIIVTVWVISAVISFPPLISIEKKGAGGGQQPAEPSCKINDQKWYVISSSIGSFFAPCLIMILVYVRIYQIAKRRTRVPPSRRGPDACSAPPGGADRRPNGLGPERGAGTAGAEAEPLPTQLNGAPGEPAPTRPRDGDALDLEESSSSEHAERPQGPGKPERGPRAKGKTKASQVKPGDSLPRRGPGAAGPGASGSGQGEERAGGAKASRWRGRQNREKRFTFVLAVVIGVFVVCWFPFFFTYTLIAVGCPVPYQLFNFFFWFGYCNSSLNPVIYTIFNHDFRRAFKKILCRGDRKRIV
Description: as §3
(§5) The tests were made on plasmic membranes of rat brains, in the presence of ^3 H clonidine 1.2×10^-9 M (α2 receptor) and of ^3 H WB4101 (N-[2-(2.6dimethoxyphenoxy)ethyl]1.4benzodioxane-2-methylamine), 0.2×10^-9 M (α1 receptor).

[7] = target: α1 receptor; test: Displacement of 3H WB 4101, plasmic membranes of rat brains; format: binding; conditions: for EC50: read-out: EC50 of DISPLACEMENT of 3H WB 4101, rat brain membranes, 3H WB4101 0.2×10^-9 M
Description: as §3, §5

[8] = test system: platelet aggregation; test: Anti-aggregating activity, BORN technique, plasma rich in platelets, ADP; format: cell-based, human; conditions: human platelet-rich plasma
Description: The anti-aggregating activity of the CM 7743, 7744, 7824, 7854, 7859 and 7874 has been studied according to the BORN technique on plasma rich in platelets of human origin. ADP has been used as indicator of platelet aggregation. […] The required concentration for inhibiting by 50% the maximum rate of aggregation varies from 45 to 100 μM.

[9] = Cardiac frequency and arterial pressure in the anaesthetized dog after intravenous injection; format: in vivo; conditions: i.v. route, anaesthetised dog
Description: as §1, §2

[10] = IV, 50% inhibition of isoprenaline hypotension
[11] = dog heart membranes, 3H dihydroalprenolol 4×10^-9 M
[12] = rat lung membranes, 3H dihydroalprenolol 4×10^-9 M
[13] = IV, 50% inhibition of isoprenaline tachycardia

T2 sequence (P54833 whole entry): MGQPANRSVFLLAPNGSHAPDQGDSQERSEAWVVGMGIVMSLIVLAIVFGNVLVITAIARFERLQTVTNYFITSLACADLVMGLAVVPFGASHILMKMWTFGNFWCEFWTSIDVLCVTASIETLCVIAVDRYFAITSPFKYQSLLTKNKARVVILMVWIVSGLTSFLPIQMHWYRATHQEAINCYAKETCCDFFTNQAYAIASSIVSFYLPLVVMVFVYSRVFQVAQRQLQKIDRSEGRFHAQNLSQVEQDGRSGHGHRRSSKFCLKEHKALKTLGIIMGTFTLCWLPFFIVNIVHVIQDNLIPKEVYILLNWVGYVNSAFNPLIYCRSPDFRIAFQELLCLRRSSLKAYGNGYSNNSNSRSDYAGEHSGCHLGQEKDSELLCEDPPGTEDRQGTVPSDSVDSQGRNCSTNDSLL
T3 sequence (P79148 whole entry): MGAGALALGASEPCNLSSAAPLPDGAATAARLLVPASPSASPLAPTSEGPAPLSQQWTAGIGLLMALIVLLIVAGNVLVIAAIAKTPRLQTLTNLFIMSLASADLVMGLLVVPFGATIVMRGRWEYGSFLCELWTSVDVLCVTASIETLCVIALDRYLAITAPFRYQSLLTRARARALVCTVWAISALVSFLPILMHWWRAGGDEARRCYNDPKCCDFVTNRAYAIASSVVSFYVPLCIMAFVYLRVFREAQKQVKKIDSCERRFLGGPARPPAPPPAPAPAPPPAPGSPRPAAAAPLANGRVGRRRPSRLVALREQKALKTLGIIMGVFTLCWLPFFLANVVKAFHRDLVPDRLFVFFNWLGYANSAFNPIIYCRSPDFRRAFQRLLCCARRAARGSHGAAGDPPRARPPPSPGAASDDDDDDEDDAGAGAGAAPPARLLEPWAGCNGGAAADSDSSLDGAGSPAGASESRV
T1 sequence (P79148 whole entry): as above
T4 sequence (P10608 whole entry): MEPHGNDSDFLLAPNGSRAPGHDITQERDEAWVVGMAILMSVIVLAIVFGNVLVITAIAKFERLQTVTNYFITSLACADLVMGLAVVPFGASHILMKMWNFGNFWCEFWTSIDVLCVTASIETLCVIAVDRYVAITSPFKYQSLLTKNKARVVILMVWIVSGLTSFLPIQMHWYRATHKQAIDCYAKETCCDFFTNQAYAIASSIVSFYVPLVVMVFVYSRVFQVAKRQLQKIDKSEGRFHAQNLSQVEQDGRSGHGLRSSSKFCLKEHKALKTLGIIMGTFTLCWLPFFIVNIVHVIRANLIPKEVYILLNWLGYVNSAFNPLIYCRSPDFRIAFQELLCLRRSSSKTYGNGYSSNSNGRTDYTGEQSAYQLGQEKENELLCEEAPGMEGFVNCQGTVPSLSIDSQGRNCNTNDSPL

Compound | cardioselectivity β1 - β2 ([1]; IV) | ED50 ([1]; iv) [mg/kg] | cardioselective in vivo (selectively inhibit the cardiac receptors) [1] | ED50 [2, 10] [mg/kg] | ID50 NORADRENALINE α [3] [mg/kg] | EC50 [4, 11] [nM] | EC50 [5, 12] [nM] | EC50 [6] [nM] | affinity for the receptor with clonidine (α2) [6] | EC50 [7] [nM] | inhibition of the platelet response with respect to the ADP [8] | IC50 ([8]; ADP, range over all products tested, read-out: concentration for inhibiting by 50% the maximum rate of aggregation) [nM] | ED50 [1, 13] [mg/kg] | reduction in the peripheral arterial pressure [9] | EC50 [4] [nM] | EC50 [5] [nM] | ED50 ([2]; iv) [mg/kg] | affinity for the receptor with WB 4101 (α1) ([7]; in vitro)
CC(Cc1c[nH]c2ccc(Cl)cc12)NCC(O)COc1ccc(CC(N)=O)cc1 (stereo not drawn) [compound 7859] | β1 > β2 (cardioselectivity (β1 >β2)) | 0.3 to 1 | cardioselective in vivo | ≥ 3 | 0.3 to 3 | 625 | 1000 | 19 | no affinity | 2.3 | inhibited the platelet response | 45000 to 100000 | – | – | – | – | – | –
Cc1ccccc1OC[C@@H](O)CN[C@H](CO)Cc1c[nH]c2ccccc12 [compound 7898] | β1 ≥ β2 (low cardioselectivity β1 ≥β2) | – | – | 0.3 to 1 | > 3 | 51 | 64 | – | – | – | – | – | 0.1 to 0.3 | reduction in the peripheral arterial pressure | – | – | – | –
Cc1ccccc1OC[C@@H](O)CN[C@@H](CO)Cc1c[nH]c2ccccc12 [compound 7899] | β1 ≥ β2 (low cardioselectivity β1 ≥β2) | – | – | 0.3 to 1 | > 3 | 135 | 82 | – | – | – | – | – | 0.3 | reduction in the peripheral arterial pressure | – | – | – | –
Cc1ccccc1OC[C@H](O)CN[C@@H](CO)Cc1c[nH]c2ccccc12 [compound 7902] | β1 < β2 (no cardioselectivity β1 <β2) | – | – | > 3 | > 3 | 7400 | 3800 | – | – | – | – | – | > 3 | reduction in the peripheral arterial pressure | – | – | – | –
CC(Cc1c[nH]c2ccccc12)NCC(O)COc1ccccc1C(=O)c1ccccc1 (stereo not drawn) [compound 7904] | β1 ≥ β2 (low cardioselectivity β1 ≥β2) | ≤ 0.1 | – | 0.1 | > 0.3 | – | – | – | – | – | – | – | – | – | 7.9 | 14 | – | –
Cc1ccccc1OCC(O)CNC(C)Cc1c[nH]c2ccc(F)cc12 (stereo not drawn) [compound 7983] | β1 > β2 (cardioselectivity (β1 >β2)) | 0.3 | cardioselective in vivo | – | > 0.3 | – | – | – | – | 600 | – | – | – | – | 19 | 47 | > 0.3 | have an affinity
CC(Cc1c[nH]c2ccc(F)cc12)NCC(O)COc1ccccc1 (stereo not drawn) [compound 40038] | β1 > β2 (cardioselectivity (β1 >β2)) | 0.1 | cardioselective in vivo | > 0.3 | 0.1 | – | – | – | no affinity | – | – | – | – | reduction in the peripheral arterial pressure | 34 | 29 | – | –
